Measurements: patent US20200163984A1, “USE OF ISOVALERYL SPIRAMYCIN I, II AND/OR III IN MANUFACTURING MEDICAMENT FOR TREATING AND/OR PREVENTING TUMOR, AND MEDICAMENT” (SHENYANG FUYANG PHARMACEUTICAL TECHNOLOGY CO., LTD., priority 2017, published 2020)
≈ marks a conversion by molar mass, not a printed value.

Legend:
[1] = tested on: human large cell lung cancer cells H1299; conditions: H1299, MTT, 48 hours
Protocol: (§1) The purpose of the assay is to evaluate the in vitro cell proliferation inhibition or cytotoxic activity of a tested sample.
(§2) MCF-7, MDA-MB-231, HepG2, A549, H460, H1299, 786-0, 769-P, U251, A172, HeLa, PC3, PANC-1, TE-1, SGC7901, and HT-29 were adherent tumor cells. The adherent tumor cells in the logarithmic growth phase were selected and digested with trypsin, then were prepared into a 4 to 5×10^4/ml cell suspension by a medium containing 10% fetal bovine serum. And the cell suspension was inoculated in a 96-well culture plate, and each well was 100 μL. The 96-well culture plate was cultured at 37° C. and 5% CO2 for 24 hours. The experimental group was replaced with a new culture medium containing different concentrations of the sample to be tested, namely, isovaleryl spiramycin I, isovaleryl spiramycin II, or isovaleryl spiramycin III, while the control group was replaced with a culture medium containing the same volume of solvent. Each group was set up with 3 parallel wells that were cultured at 37° C. and 5% CO2 for 48 hours. After the supernatant was removed, the wells were washed carefully for 3 times with PBS. And 100 μL of freshly prepared culture medium containing 0.5 mg/ml MTT was added to each well for continuous incubation for 4 hours at 37° C. After the supernatant was removed carefully, 150 μL of DMSO was added to each well, and after the material was mixed for 10 minutes with a micro-oscillator, the optical density value was measured at 492 nm with a microplate reader.
(§3) The inhibition rate of the medicament on tumor cell growth is calculated according to the following formula:
(§4) Tumor cell growth inhibition rate (%)=[A492 (negative control)−A492 (dosing group)]/A492 (negative control)×100%
(§5) And the half-inhibitory concentration (IC50) of the sample is determined therefrom.

[2] = tested on: human pancreatic cancer cell PANC-1; conditions: PANC-1, MTT, 48 hours
Protocol: as §1, §2, §3, §4, §5

[3] = tested on: human large cell lung cancer cells H460; conditions: H460, MTT, 48 hours
Protocol: as §1, §2, §3, §4, §5

[4] = tested on: human gastric adenocarcinoma cell SGC7901; conditions: SGC-7901, MTT, 48 hours
Protocol: as §1, §2, §3, §4, §5

[5] = tested on: human hepatoma cells HepG2; conditions: HepG2, MTT, 48 hours
Protocol: as §1, §2, §3, §4, §5

[6] = tested on: human cervical cancer cell HeLa; conditions: MTT, 48 hours
Protocol: as §1, §2, §3, §4, §5

[7] = tested on: human glioblastoma cell A172; conditions: A172, MTT, 48 hours
Protocol: as §1, §2, §3, §4, §5

[8] = tested on: human prostate cancer cell PC3; conditions: PC3, MTT, 48 hours
Protocol: as §1, §2, §3, §4, §5

[9] = tested on: human non-small cell lung cancer cells A549; conditions: A549, MTT, 48 hours
Protocol: as §1, §2, §3, §4, §5

[10] = tested on: human renal clear cell adenocarcinoma cell 786-O; conditions: MTT, 48 hours
Protocol: as §1, §2, §3, §4, §5

[11] = tested on: human esophageal cancer cell TE-1; conditions: TE-1, MTT, 48 hours
Protocol: as §1, §2, §3, §4, §5

[12] = tested on: human breast cancer cells MDA-MB-231; conditions: MDA-MB-231, MTT, 48 hours
Protocol: as §1, §2, §3, §4, §5

[13] = tested on: human breast cancer cells MCF-7; conditions: MCF-7, MTT, 48 hours
Protocol: as §1, §2, §3, §4, §5

human glioma cell U251 = conditions: U251, MTT, 48 hours
Protocol: as §1, §2, §3, §4, §5

[14] = tested on: human renal cell adenocarcinoma cell 769-P; conditions: MTT, 48 hours
Protocol: as §1, §2, §3, §4, §5

[15] = tested on: human colon cancer cell HT-29; conditions: HT-29, MTT, 48 hours
Protocol: as §1, §2, §3, §4, §5

[16] = tested on: transplanted tumor of HT-29 cells; test: HT-29 transplanted tumor in nude mice; conditions: for Inhibition Rate (%) / Tumor Weight: HT-29 nude mice; for Tumor Volume (mm3) (d30): d 30
Protocol: Then cell concentration was adjusted to 1×10^7/ml with matrigel, then each nude mouse was inoculated subcutaneously with 0.2 ml of cells at its right armpit and recorded as the first day of inoculation. When the tumor grows to be greater than or equal to 100 mm^3, the mice were randomly divided into 11 groups with 6 mice in each group: isovaleryl spiramycin I groups with doses of 25, 50 and 100 mg/kg, isovaleryl spiramycin II groups with doses of 25, 50 and 100 mg/kg, and isovaleryl spiramycin III groups with doses of 25, 50 and 100 mg/kg. Each group was continuously administered intragastrically for 30 days with a dose of 20 ml/kg. The mice were sacrificed the next day after drug withdrawal and the indicators were tested. The long diameter and short diameter of the tumor, and the body weight of each mouse were recorded every 3 days from drug administration to nude mouse sacrifice.
The body weight of the nude mice and the long diameter (a) and short diameter (b) of the transplanted tumor were measured every 3 days, and the tumor volume (v), relative tumor volume (RTV) and relative tumor proliferation rate (T/C) are calculated respectively according to the following formulas, wherein V=a×b^2/2; RTV=V/V0 (V0 is the tumor volume before administration, V is the tumor volume before sacrifice), and T/C (%)=treatment group RTV/model control group RTV×100%.
Each mouse was weighed and sacrificed. After the tumor was completely stripped off from the body of the mouse, the non-tumor tissues such as blood stains and fat were removed to weigh the tumor and calculate the tumor growth inhibition rate. The average tumor weight of each group of mice is used as an indicator of efficacy. Tumor growth inhibition rate (%)=(1−the average tumor weight of the treatment group/the average tumor weight of the model group)×100%.

[17] = HT-29, high dose (100 mg/kg in method) i.g. 30 days
[18] = HT-29, low dose (25 mg/kg in method) i.g. 30 days
[19] = HT-29, medium dose (50 mg/kg in method) i.g. 30 days

IC50 [1]: 32.40 ± 0.41 µg/mL (≈ 33 µM) | IC50 [2]: 13.18 ± 0.23 µg/mL (≈ 13.4 µM) | IC50 [3]: 28.80 ± 0.19 µg/mL (≈ 29.3 µM) | IC50 [4]: 17.26 ± 0.79 µg/mL (≈ 17.6 µM) | IC50 [5]: 27.42 ± 3.52 µg/mL (≈ 27.9 µM) | IC50 [6]: 15.86 ± 0.62 µg/mL (≈ 16.1 µM) | IC50 [7]: 16.17 ± 0.54 µg/mL (≈ 16.4 µM) | IC50 [8]: 16.37 ± 0.27 µg/mL (≈ 16.6 µM) | IC50 [9]: 28.84 ± 1.73 µg/mL (≈ 29.3 µM) | IC50 [10]: 10.52 ± 0.56 µg/mL (≈ 10.7 µM) | IC50 [11]: 20.19 ± 1.83 µg/mL (≈ 20.5 µM) | IC50 [12]: 29.47 ± 0.28 µg/mL (≈ 30 µM) | IC50 [13]: 32.44 ± 1.18 µg/mL (≈ 33 µM) | IC50 (human glioma cell U251): 16.46 ± 1.54 µg/mL (≈ 16.7 µM) | IC50 [14]: 10.75 ± 0.56 µg/mL (≈ 10.9 µM) | IC50 [15]: 22.68 ± 2.32 µg/mL (≈ 23.1 µM) | mouse weight compared with the model group ([16]; mouse, in vivo): no significant changes
SMILES: CCC(=O)O[C@@H]1CC(=O)O[C@H](C)C/C=C/C=C/[C@H](O[C@H]2CC[C@H](N(C)C)[C@@H](C)O2)[C@H](C)C[C@H](CC=O)[C@H](O[C@@H]2O[C@H](C)[C@@H](O[C@H]3C[C@@](C)(O)[C@@H](OC(=O)CC(C)C)[C@H](C)O3)[C@H](N(C)C)[C@H]2O)[C@H]1OC [Isovaleryl spiramycin III, isovaleryl spiramycin III]
Relative Tumor Proliferation Rate (T/C) [16, 17]: 35.63% | tumor growth inhibition rate [16, 17]: 63.19% | Relative Tumor Proliferation Rate (T/C) [16, 18]: 85.54% | tumor growth inhibition rate [16, 18]: 19.22% | tumor volume and relative tumor volume compared with the model group ([16]; HT-29, low, medium and high doses, P<0.05): significantly lower | Relative Tumor Proliferation Rate (T/C) [16, 19]: 53.48% | tumor growth inhibition rate [16, 19]: 41.35% | Inhibition Rate (%) ([16]; 25 mg/kg): 19.22% | Tumor Weight ([16]; 25 mg/kg): 1.90 ± 0.39 g | Inhibition Rate (%) ([16]; 50 mg/kg): 41.35% | Tumor Weight ([16]; 50 mg/kg): 1.38 ± 0.37 g | Inhibition Rate (%) ([16]; 100 mg/kg): 63.19% | Tumor Weight ([16]; 100 mg/kg): 0.87 ± 0.34 g | Relative Tumor Proliferation Rate (T/C) ([16]; dose 25 mg/kg): 85.54% | Relative Tumor Volume (RTV) ([16]; dose 25 mg/kg): 12.32 ± 4.51 | Tumor Volume (mm3) (d 1) ([16]; dose 25 mg/kg): 154.49 ± 33.07 mm3 | Tumor Volume (mm3) (d30) ([16]; dose 25 mg/kg): 1803.16 ± 368.50 mm3 | Relative Tumor Proliferation Rate (T/C) ([16]; dose 50 mg/kg): 53.48% | Relative Tumor Volume (RTV) ([16]; dose 50 mg/kg): 7.70 ± 1.65 | Tumor Volume (mm3) (d 1) ([16]; dose 50 mg/kg): 161.76 ± 30.69 mm3 | Tumor Volume (mm3) (d30) ([16]; dose 50 mg/kg): 1252.64 ± 404.06 mm3 | Relative Tumor Proliferation Rate (T/C) ([16]; dose 100 mg/kg): 35.63% | Relative Tumor Volume (RTV) ([16]; dose 100 mg/kg): 5.13 ± 1.13 | Tumor Volume (mm3) (d 1) ([16]; dose 100 mg/kg): 160.38 ± 38.86 mm3 | Tumor Volume (mm3) (d30) ([16]; dose 100 mg/kg): 826.76 ± 259.70 mm3 | Body Weight (g) (d1) ([16]; mouse, in vivo, 25 mg/kg): 21.31 ± 1.23 g | Body Weight (g) (d30) ([16]; mouse, in vivo, 25 mg/kg): 21.19 ± 1.52 g | Body Weight (g) (d1) ([16]; mouse, in vivo, 50 mg/kg): 21.22 ± 1.24 g | Body Weight (g) (d30) ([16]; mouse, in vivo, 50 mg/kg): 21.00 ± 0.98 g | Body Weight (g) (d1) ([16]; mouse, in vivo, 100 mg/kg): 21.34 ± 1.78 g | Body Weight (g) (d30) ([16]; mouse, in vivo, 100 mg/kg): 21.09 ± 1.43 g
